Assay results from ChEMBL document CHEMBL5465560, “Selectivity Literature for EUbOPEN Chemogenomic Library” (2024).

Tests used:
Focal adhesion kinase 1 = Focal adhesion kinase 1 (Homo sapiens, UniProt Q05397); assay: Selectivity interaction (KinomeScan (DiscoverX)) EUB0000229b PTK2; conditions: at 10 µM
[1] = molecular target: T1, Mitogen-activated protein kinase kinase kinase 15 (Homo sapiens) (UniProt Q6ZN16); assay: Selectivity interaction (KinomeScan (DiscoverX)) EUB0001079a MAP3K15; conditions: at 1 µM
T1 sequence (whole entry): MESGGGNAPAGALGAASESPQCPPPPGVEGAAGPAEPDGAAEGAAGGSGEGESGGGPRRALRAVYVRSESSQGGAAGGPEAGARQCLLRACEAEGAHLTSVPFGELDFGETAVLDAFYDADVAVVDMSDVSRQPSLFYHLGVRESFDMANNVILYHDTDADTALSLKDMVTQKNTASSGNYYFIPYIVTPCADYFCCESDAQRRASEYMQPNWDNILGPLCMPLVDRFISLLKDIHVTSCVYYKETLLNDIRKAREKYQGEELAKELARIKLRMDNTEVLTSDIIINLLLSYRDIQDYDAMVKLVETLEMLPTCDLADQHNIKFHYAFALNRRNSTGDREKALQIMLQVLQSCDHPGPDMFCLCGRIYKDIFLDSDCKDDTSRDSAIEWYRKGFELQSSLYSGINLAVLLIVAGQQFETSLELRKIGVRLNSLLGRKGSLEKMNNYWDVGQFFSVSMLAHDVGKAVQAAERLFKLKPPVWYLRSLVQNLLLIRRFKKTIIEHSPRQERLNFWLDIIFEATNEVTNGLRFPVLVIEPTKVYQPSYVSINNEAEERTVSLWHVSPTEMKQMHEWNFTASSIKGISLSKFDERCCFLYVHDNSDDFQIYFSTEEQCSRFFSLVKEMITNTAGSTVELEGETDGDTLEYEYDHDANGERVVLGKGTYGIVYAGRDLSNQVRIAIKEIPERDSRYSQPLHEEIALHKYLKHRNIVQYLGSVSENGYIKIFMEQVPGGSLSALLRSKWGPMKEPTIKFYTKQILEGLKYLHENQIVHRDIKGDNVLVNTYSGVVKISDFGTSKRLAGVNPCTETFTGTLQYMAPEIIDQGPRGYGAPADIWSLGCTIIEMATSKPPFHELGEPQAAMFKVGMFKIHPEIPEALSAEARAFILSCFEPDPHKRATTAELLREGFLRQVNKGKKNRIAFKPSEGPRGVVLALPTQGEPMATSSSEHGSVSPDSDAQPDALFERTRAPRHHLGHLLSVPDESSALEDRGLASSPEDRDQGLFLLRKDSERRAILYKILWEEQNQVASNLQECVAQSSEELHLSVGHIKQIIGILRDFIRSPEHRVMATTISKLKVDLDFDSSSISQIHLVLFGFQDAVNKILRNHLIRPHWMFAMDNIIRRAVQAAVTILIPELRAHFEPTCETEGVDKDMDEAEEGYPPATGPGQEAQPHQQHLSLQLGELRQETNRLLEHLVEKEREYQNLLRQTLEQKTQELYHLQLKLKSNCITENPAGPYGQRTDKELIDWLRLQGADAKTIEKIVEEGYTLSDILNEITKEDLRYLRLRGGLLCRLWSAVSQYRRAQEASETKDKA

[2] = molecular target: T2, Phosphorylase b kinase gamma catalytic chain, liver/testis isoform (Homo sapiens) (UniProt P15735); assay: Selectivity interaction (KinomeScan (DiscoverX)) EUB0000666a PHKG2; conditions: at 10 µM
T2 sequence (whole entry): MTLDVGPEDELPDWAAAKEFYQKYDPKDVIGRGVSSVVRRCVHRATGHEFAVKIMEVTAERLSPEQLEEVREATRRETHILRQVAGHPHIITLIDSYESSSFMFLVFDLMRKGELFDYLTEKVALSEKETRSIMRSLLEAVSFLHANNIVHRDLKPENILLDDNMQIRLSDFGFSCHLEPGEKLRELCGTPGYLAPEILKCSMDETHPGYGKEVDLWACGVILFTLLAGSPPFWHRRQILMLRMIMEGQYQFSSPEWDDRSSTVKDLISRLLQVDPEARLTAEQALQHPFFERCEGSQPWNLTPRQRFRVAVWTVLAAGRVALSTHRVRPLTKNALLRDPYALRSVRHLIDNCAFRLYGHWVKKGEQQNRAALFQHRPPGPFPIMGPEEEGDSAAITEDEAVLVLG

[3] = molecular target: T3, Interleukin-1 receptor-associated kinase 4 (Homo sapiens, UniProt Q9NWZ3); assay: Selectivity interaction (Kinase counterscreening (biochemical assay)) EUB0000604a IRAK4
T3 sequence (Q9NWZ3 whole entry): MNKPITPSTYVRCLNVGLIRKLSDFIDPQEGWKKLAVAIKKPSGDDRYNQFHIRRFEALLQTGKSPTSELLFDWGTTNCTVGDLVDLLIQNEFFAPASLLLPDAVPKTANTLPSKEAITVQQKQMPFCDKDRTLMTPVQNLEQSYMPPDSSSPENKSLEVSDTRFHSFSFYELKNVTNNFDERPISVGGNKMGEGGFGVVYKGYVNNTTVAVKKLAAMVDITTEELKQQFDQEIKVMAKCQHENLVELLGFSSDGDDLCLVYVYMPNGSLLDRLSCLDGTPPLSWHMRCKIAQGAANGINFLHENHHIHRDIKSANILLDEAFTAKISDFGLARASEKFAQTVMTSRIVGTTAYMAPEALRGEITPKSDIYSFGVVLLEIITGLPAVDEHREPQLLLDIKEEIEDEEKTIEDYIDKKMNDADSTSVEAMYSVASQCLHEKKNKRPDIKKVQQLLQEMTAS

[4] = molecular target: MAP kinase-activated protein kinase 2 (Homo sapiens, UniProt P49137); assay: Selectivity interaction (Millipore kinase profiler) EUB0000124b MAPKAPK2; conditions: at 10 µM
[5] = molecular target: Tyrosine-protein kinase Srms (Homo sapiens) (UniProt Q9H3Y6); assay: Selectivity interaction (ProQinase) EUB0000171b SRMS
[6] = molecular target: T4, Aurora kinase A (Homo sapiens) (UniProt O14965); assay: Selectivity interaction (ActivX KiNativ screen (kinase selectivity in THP-1 cell lysates)) EUB0000639a STK6; type: subcellular; conditions: lysate, at 0.01 µM
T4 sequence (whole entry): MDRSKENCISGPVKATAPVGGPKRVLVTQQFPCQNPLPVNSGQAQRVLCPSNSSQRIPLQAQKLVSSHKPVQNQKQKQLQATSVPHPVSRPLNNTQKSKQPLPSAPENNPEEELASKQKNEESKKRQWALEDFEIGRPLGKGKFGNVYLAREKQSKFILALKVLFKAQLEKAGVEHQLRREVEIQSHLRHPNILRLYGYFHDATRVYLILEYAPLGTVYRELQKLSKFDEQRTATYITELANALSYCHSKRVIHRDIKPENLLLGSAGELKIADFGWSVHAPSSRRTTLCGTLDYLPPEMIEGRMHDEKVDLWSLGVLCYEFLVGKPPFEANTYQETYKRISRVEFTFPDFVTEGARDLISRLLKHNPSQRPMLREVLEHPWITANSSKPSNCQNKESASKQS

Chain of Tyrosine-protein kinase Srms (Homo sapiens) (Q9H3Y6 whole entry): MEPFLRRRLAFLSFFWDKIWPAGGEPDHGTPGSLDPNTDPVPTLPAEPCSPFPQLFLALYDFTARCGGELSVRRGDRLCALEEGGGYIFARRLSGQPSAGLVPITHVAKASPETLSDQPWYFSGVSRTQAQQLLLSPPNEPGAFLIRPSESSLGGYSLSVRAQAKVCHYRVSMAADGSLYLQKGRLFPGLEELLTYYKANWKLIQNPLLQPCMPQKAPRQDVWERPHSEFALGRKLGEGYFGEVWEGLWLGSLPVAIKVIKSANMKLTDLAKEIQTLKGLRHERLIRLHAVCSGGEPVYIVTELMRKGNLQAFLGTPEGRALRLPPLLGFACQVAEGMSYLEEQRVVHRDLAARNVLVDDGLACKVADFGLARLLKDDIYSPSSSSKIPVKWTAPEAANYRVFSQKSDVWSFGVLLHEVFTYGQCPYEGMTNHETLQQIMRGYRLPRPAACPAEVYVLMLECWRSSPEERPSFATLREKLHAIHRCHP
Chain of Focal adhesion kinase 1 (Q05397 2-1052 limits assumed): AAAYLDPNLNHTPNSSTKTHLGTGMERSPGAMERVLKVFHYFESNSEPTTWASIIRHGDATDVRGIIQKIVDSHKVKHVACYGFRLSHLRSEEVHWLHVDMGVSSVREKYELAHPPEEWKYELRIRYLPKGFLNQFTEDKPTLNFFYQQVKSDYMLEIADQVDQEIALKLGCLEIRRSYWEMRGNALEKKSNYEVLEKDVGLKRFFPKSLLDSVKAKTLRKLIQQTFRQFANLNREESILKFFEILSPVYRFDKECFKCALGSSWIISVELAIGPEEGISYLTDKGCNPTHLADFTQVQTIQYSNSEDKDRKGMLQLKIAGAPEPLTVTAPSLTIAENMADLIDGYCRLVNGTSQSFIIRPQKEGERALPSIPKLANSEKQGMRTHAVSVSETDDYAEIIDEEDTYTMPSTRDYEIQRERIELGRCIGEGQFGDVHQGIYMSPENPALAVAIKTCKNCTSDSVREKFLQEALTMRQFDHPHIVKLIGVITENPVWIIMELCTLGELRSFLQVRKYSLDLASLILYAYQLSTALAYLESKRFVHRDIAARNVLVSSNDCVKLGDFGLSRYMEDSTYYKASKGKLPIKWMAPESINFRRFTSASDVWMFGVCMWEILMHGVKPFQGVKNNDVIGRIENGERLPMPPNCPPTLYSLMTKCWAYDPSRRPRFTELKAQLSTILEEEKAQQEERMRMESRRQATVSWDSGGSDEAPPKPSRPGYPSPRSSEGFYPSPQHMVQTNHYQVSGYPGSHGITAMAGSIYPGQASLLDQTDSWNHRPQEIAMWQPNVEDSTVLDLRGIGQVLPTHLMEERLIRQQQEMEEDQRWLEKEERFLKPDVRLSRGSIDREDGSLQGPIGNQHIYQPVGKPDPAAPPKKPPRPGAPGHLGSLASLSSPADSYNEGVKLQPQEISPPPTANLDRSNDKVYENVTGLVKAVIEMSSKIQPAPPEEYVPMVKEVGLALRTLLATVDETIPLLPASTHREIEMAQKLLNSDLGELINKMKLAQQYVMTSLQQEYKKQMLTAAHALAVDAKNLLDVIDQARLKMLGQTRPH
Chain of MAP kinase-activated protein kinase 2 (P49137 whole entry, looked up): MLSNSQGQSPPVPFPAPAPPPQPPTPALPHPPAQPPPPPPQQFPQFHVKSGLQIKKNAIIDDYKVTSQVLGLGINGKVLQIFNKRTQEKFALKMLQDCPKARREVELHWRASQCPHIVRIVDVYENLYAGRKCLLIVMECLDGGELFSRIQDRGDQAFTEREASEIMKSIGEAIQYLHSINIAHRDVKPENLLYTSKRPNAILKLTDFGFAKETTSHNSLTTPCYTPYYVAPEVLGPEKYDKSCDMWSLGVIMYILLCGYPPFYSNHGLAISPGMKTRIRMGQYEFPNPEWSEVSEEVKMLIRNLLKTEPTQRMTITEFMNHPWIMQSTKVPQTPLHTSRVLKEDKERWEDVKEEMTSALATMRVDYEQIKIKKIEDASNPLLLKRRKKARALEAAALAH

SMILES: COc1cc(N(C)c2ccnc3ccc(C(F)(F)F)cc23)cc(OC)c1OC
- % binding (Focal adhesion kinase 1): 100%

SMILES: Nc1cnc(N2CCc3cc(S(=O)(=O)Nc4c(F)cc(Cl)cc4F)cc(N4CCCC4=O)c32)nc1 [TP-020n]
- % of control [1]: 100%

SMILES: O=C(NOC[C@H](O)CO)c1ccc(F)c(F)c1Nc1ccc(I)cc1F
- % of control [2]: 93%

SMILES: Cc1cnc(Nc2ccc(F)cc2Cl)nc1-c1c[nH]c(C(=O)N[C@H](CO)c2cccc(Cl)c2)c1
- Ki [3]: > 4 µM

SMILES: CC(=O)Nc1cccc(-n2c(=O)n(C3CC3)c(=O)c3c(Nc4ccc(I)cc4F)n(C)c(=O)c(C)c32)c1
- % of control [4]: 109%

SMILES: C=CC(=O)Nc1cccc(C(=O)Nc2ccc(Nc3cc(-c4[nH]c(SC)nc4C)ccn3)cc2)c1
- % of control ([5]; at 1 µM): 95%
- % of control ([5]; at 5 µM): 92%

SMILES: CC[C@@H]1[C@H](F)C(=O)N[C@@H]1COc1nccc2cc(C(N)=O)c(OC)cc12 [ZIMLOVISERTIB]
- % of inhibition [6]: 4.9%
